Laboratory results from patent publication US6911477B2, “Muscarinic receptor agonists” (Pfizer Inc., priority 1996, dated 2005).
Structures can show the parent of a compound that is named as a salt.

| Compound | melting point |
| --- | --- |
| Cc1cccc(C)c1C(=Nc1ccc(F)cc1)NC(=Nc1ccc(F)cc1)N1CCCCCC1 (as salt: hydrochloride) [Example 49, N-[azepan-1-yl-(4-fluoro-phenylimino)-methyl]-N′-(4-fluoro-phenyl)-2,6-dimethyl-benzamidine] | 155 to 157 °C |
| Cc1cccc(C)c1C(=Nc1ccc(F)cc1)NC(=Nc1ccccc1)N1CCCCCC1 (as salt: hydrochloride) [Example 53, N-(azepan-1-yl-phenylimino-methyl)-N′-(4-fluoro-phenyl)-2,6-dimethyl-benzamidine] | 243 to 245 °C |
| CCC1CCCCN1C(=Nc1ccccc1)NC(=Nc1ccc(F)cc1)c1c(C)cccc1C (centres unmarked) (as salt: hydrochloride) [Example 58, N-[(2-ethyl-piperidin-1-yl)-phenylimino-methyl]-N′-(4-fluoro-phenyl)-2,6-dimethyl-benzamidine] | 137 to 139 °C (dec.) |
| Cc1cccc(C)c1C(=NC(=Nc1ccccc1)N1CCCCO1)Nc1ccc(F)cc1 (as salt: hydrochloride) [Example 61, N-(4-fluoro-phenyl)-2,6-dimethyl-N′-([1,2]oxazinan-2-yl-phenylimino-methyl)-benzamidine] | 212 to 214 °C (dec.) |
| Cc1cccc(C)c1C(=NC(=Nc1ccccc1)N1CCC(=O)CC1)Nc1ccc(F)cc1 (as salt: hydrochloride) [Example 63, N-(4-fluoro-phenyl)-2,6-dimethyl-N′-[(4-oxo-piperidin-1-yl)-phenylimino-methyl]-benzamidine] | 228 to 229 °C (dec.) |
| Cc1cccc(C)c1C(=Nc1ccc(F)cc1)NC(=Nc1ccc(N)cc1)N1CCCCC1C (centres unmarked) (as salt: hydrochloride) [Example 64, N-[(4-amino-phenylimino)-(2-methyl-piperidin-1-yl)-methyl]-N′-(4-fluoro-phenyl)-2,6-dimethyl-benzamidine] | 179 to 181 °C |
| COc1ccc(NC(=NC(=Nc2ccccc2)N2CCCCO2)c2c(C)cccc2C)cc1 (as salt: hydrochloride) [Example 67, N-(4-methoxy-phenyl)-2,6-dimethyl-N′-([1,2]oxazinan-2-yl-phenylimino-methyl)-benzamidine] | 214 to 215 °C |
| COc1ccc(N=C(NC(=Nc2ccccc2)N2CCCCCC2)c2c(C)cccc2C)cc1 (as salt: hydrochloride) [Example 68, N-(azepan-1-yl-phenylimino-methyl)-N′-(4-methoxy-phenyl)-2,6-dimethyl-benzamidine] | 228 to 230 °C (dec.) |
| Cc1cccc(C)c1C(=NC(=Nc1ccccc1)N1CCOCC1)Nc1ccc(F)cc1 (as salt: hydrochloride) [Example 76, N-(4-fluoro-phenyl)-2,6-dimethyl-N′-(morpholin-4-yl-phenylimino-methyl)-benzamidine] | 249 to 251 °C (dec.) |
| Cc1cccc(C)c1C(=Nc1ccc(F)cc1)NC(=Nc1ccccc1Cl)N1CCCCC1C (centres unmarked) (as salt: hydrochloride) [Example 85, N-[(2-chloro-phenylimino)-(2-methyl-piperidin-1-yl)-methyl]-N′-(4-fluoro-phenyl)-2,6-dimethyl-benzamidine] | 207 to 209 °C |
| Cc1cccc(C)c1C(=NC(=Nc1cccnc1)N1CCCCC1C)Nc1ccc(F)cc1 (centres unmarked) (as salt: hydrochloride) [Example 86, N-(4-fluoro-phenyl)-2,6-dimethyl-N′-[(2-methyl-piperidin-1-yl)-(pyridin-3-ylimino)-methyl]-benzamidine] | 207 to 210 °C |
| Cc1ccccc1C(=Nc1ccc(F)cc1)NC(=NC1CCCCC1)C1(C)CCCCC1 (as salt: hydrochloride) [Example 96, N-[cyclohexylimino-(1-methyl-cyclohexyl)-methyl]-N′-(4-fluoro-phenyl)-2-methyl-benzamidine] | 127 to 129 °C |
| Cc1ccccc1C(=Nc1ccc(F)cc1)NC(=NC1CCCCC1)N1CCCCC1C (centres unmarked) (as salt: hydrochloride) [Example 97, N-[cyclohexylimino-(2-methyl-piperidin-1-yl)-methyl]-N′-(4-fluoro-phenyl)-2-methyl-benzamidine] | > 160 °C (dec.) |
| CCC(C)N=C(NC(=Nc1ccc(F)cc1)c1c(C)cccc1C)N1CCCCC1C (centres unmarked) (as salt: hydrochloride) [Example 98, N-[sec-butylimino-(2-methyl-piperidin-1-yl)-methyl]-N′-(4-fluoro-phenyl)-2,6-dimethyl-benzamidine] | 168 to 170 °C (dec.) |
| Cc1cccc(C)c1C(=Nc1ccc(F)cc1)NC(=NC1CCC1)N1CCCCC1C (centres unmarked) (as salt: hydrochloride) [Example 102, N-[cyclobutylimino-(2-methyl-piperidin-1-yl)-methyl]-N′-(4-fluoro-phenyl)-2,6-dimethyl-benzamidine] | 136 to 138 °C |

Continued, values first:

| melting point | Compound |
| --- | --- |
| 213 to 214 °C | Cc1cccc(C)c1C(=NC(=Nc1ccc(F)cc1)N1CCCCO1)Nc1ccc(F)cc1 (as salt: hydrochloride) [Example 50, N-(4-fluoro-phenyl)-N′-[(4-fluoro-phenylimino)-[1,2]oxazinan-2-yl-methyl]-2,6-dimethyl-benzamidine] |
| 216 to 218 °C | Fc1ccc(N=C(NC(=Nc2ccc(F)cc2)N2CCCCCC2)c2c(F)cccc2F)cc1 (as salt: hydrochloride) [Example 57, N-[azepan-1-yl-(4-fluoro-phenylimino)-methyl]-2,6-difluoro-N′-(4-fluoro-phenyl)-benzamidine] |
| 165 to 167 °C (dec.) | Cc1cccc(C)c1C(=Nc1ccc(F)cc1)NC(=Nc1ccccc1)N1C(C)CCCC1C (centres unmarked) (as salt: hydrochloride) [Example 59, N-[(2,6-dimethyl-piperidin-1-yl)-phenylimino-methyl]-N′-(4-fluoro-phenyl)-2,6-dimethyl-benzamidine] |
| 162 to 164 °C (dec.) | COc1ccc(NC(=NC(=Nc2ccccc2)N2CCCCC2C)c2ccccc2C)cc1 (centres unmarked) (as salt: hydrochloride) [Example 60, N-(4-methoxy-phenyl)-2-methyl-N′-[(2-methyl-piperidin-1-yl)-phenylimino-methyl]-benzamidine] |
| 196 to 198 °C (dec.) | Cc1cccc(C)c1C(=NC(=Nc1ccccc1)N1CCCC(O)C1)Nc1ccc(F)cc1 (centres unmarked) (as salt: hydrochloride) [Example 62, N-(4-fluoro-phenyl)-N′-[(3-hydroxy-piperidin-1-yl)-phenylimino-methyl]-2,6-dimethyl-benzamidine] |
| 215 to 217 °C | Cc1cccc(C)c1C(=NC(=Nc1ccccc1)N1CCC(=O)CC1C)Nc1ccc(F)cc1 (centres unmarked) (as salt: hydrochloride) [Example 65, N-(4-fluoro-phenyl)-2,6-dimethyl-N′-[(2-methyl-4-oxo-piperidin-1-yl)-phenylimino-methyl]-benzamidine] |
| > 150 °C | Cc1ccccc1C(=NC(=Nc1ccccc1)N1CCCC(O)C1)Nc1ccc(F)cc1 (centres unmarked) (as salt: hydrochloride) [Example 66, N-(4-fluoro-phenyl)-N′-[(3-hydroxy-piperidin-1-yl)-phenylimino-methyl]-2-methyl-benzamidine] |
| > 143 °C | Cc1ccccc1C(=NC(=Nc1ccccc1)N1CCC(=O)CC1C)Nc1ccc(F)cc1 (centres unmarked) (as salt: hydrochloride) [Example 69, N-(4-fluoro-phenyl)-2-methyl-N′-[(2-methyl-4-oxo-piperidin-1-yl)-phenylimino-methyl]-benzamidine] |
| 210 to 213 °C | Cc1cccc(C)c1C(=Nc1ccc(F)cc1)NC(=Nc1cccc(N)c1)N1CCCCC1C (centres unmarked) (as salt: hydrochloride) [Example 70, N-[(3-amino-phenylimino)-(2-methyl-piperidin-1-yl)-methyl]-N′-(4-fluoro-phenyl)-2,6-dimethyl-benzamidine] |
| 163 to 166 °C (dec.) | Cc1cccc(C)c1C(=NC(=Nc1ccccc1)N1CCC(O)CC1C)Nc1ccc(F)cc1 (centres unmarked) (as salt: hydrochloride) [Example 72, N-(4-fluoro-phenyl)-N′-[(4-hydroxy-2-methyl-piperidin-1-yl)-phenylimino-methyl]-2,6-dimethyl-benzamidine] |
| 208 to 210 °C | Cc1ccccc1C(=Nc1ccc(F)cc1)NC(=Nc1ccccc1Cl)N1CCCCC1C (centres unmarked) (as salt: hydrochloride) [Example 79, N-[(2-chloro-phenylimino)-(2-methyl-piperidin-1-yl)-methyl]-N′-(4-fluoro-phenyl)-2-methyl-benzamidine] |
| 169 to 172 °C | Cc1cccc(C)c1C(=NC(=Nc1ccccc1)N1CCC(O)CC1C)Nc1ccc(F)cc1 (centres unmarked) (as salt: hydrochloride) [Example 82, N-(4-fluoro-phenyl)-N′-[(4-hydroxy-2-methyl-piperidin-1-yl)-phenylimino-methyl]-2,6-dimethyl-benzamidine] |
| 206 to 208 °C | Cc1ccccc1N=C(N=C(Nc1ccc(F)cc1)c1c(C)cccc1C)N1CCCCC1C (centres unmarked) (as salt: hydrochloride) [Example 84, N-(4-fluoro-phenyl)-2,6-dimethyl-N′-[(2-methyl-piperidin-1-yl)-o-tolylimino-methyl]-benzamidine] |
| 192 to 194 °C | COc1ccc(NC(=CC(=Nc2ccccc2)N2CCCCO2)c2ccccc2C)cc1 (as salt: hydrochloride) [Example 94, (3-phenylimino-3-[1,2]oxazinan-2-yl-1-o-tolyl-propenyl)-(4-methoxy-phenyl)-amine] |
| 171 to 172 °C | Cc1ccccc1C(=CC(=NC1CCCCC1)N1CCCCO1)Nc1ccc(F)cc1 (as salt: hydrochloride) [Example 95, (3-cyclohexylimino-3-[1,2]oxazinan-2-yl-1-o-tolyl-propenyl)-(4-fluoro-phenyl)-amine] |
| 208 to 210 °C (dec.) | Cc1cccc(C)c1C(=NC(=NC(C)C)N1CCCCC1C)Nc1ccc(F)cc1 (centres unmarked) (as salt: hydrochloride) [Example 99, N-(4-fluoro-phenyl)-N′-[isopropylimino-(2-methyl-piperidin-1-yl)-methyl]-2,6-dimethyl-benzamidine] |
| > 125 °C (dec.) | Cc1ccccc1C(=CC(=NC1CCCCC1)N1CCCCC1C)Nc1ccc(F)cc1 (centres unmarked) (as salt: hydrochloride) [Example 100, [3-cyclohexylimino-3-(2-methyl-piperidin-1-yl)-1-o-tolyl-propenyl]-(4-fluoro-phenyl)-amine] |
